Values quoted from earlier work, collected in PMC8778659 (Bioconjugate Chemistry, 2021).

Tested on: LNCaP xenografts
Conditions: 1 h p.i. ref 29

Compound: O=C(O)CC[C@H](NC(=O)N[C@@H](CCCCNC(=O)c1ccc(-c2cn(CCOCCOCC[18F])nn2)cc1)C(=O)O)C(=O)O [[18F]PSMA-MIC01]
- specific tumor uptake: 11.7 ± 4.2 %ID/g
